Results as given in patent US8288549B2, “Glycine B antagonist” (Merz Pharma GmbH & Co. KGaA, priority 2008, dated 2012).
Structures can show the parent of a compound that is named as a salt.

What was measured:
[1] = biological target: T1, NMDA receptor glycine B site (Rattus norvegicus, UniProt P35439); experiment: Whole cell patch-clamp recordings in cultured rat hippocampal neurons (NMDA/D-Serine evoked currents); format: cell-based; settings: NMDA (200 μM) and D-Serine (1 μM), holding potential −70 mV, read-out: NMDA-PC-r-HIC-NAM - IC50
T1 construct: Hippocampi are then isolated from the brains of at least 8 embryos after decapitation; endogenous in cells; host or cells: primary cultured hippocampal neurons from E20 Sprague-Dawley rat embryos, 11-15 DIV
Experimental: Antagonistic potencies of the test compounds are functionally evaluated using electrophysiological whole cell patch-clamp recordings and/or fluorometric intracellular Ca^2+-imaging (FLIPR) screens.
Cell preparation is performed as described by Parsons, et al. (Neuropharmacology, 1998, 37(6), 719-727). The female Sprague-Dawley rat is anaesthetised by placing in a saturated CO2-euthanasia chamber under further quiet CO2-influx. Under these conditions the rat loses consciousness after a few seconds and is then sacrificed by cervical dislocation. After opening the abdominal cavity, embryos (E20) are removed and stored in ice cold Ca^2+- and Mg^2+-free Hank's Buffered Salt Solution (pH 7.3), containing 4 g/l glucose (HBSS-CMF). Hippocampi are then isolated from the brains of at least 8 embryos after decapitation, transferred into ice cold HBSS-CMF and washed 3 to 4 times.
Hippocampi are pre-incubated for 8 min with a 0.66% trypsin (Sigma-Aldrich) and 0.1% (20 U/ml) DNAase solution (Sigma-Aldrich) in Ca^2+-free Phosphate Buffered Saline (PBS-CF) and washed 3 times with HBSS-CMF. Cells are then mechanically dissociated by trituration in a PBS-CF solution containing 0.05% (10 U/ml) DNAase and 0.3% of the trypsin inhibitor ovomucoid (all from Sigma-Aldrich). The cells are then centrifuged at 180×g for 10 minutes, and the cell pellet re-suspended in basal Minimum essential medium (MEM, Invitrogen, Karlsruhe, Germany), again carefully triturated to ensure maximal dissociation and finally plated in the flexiPERM inserts (Thermo Fisher Scientific, Langenselbold, Germany) at a density of 15×10^3 cells/cm^2 (0.5 ml/insert) onto poly-DL-ornithine (Sigma) and mouse laminin (Invitrogen) pre-coated plastic petri dishes. After 1 hour the cells become attached to the bottom of the dish and the inserts may be removed. The cells are then nourished with 2 ml MEM supplemented with 5% foetal calf serum (FCS) and 5% horse serum and incubated at 37° C. with 95% air and 5% CO2 at 95% humidity. After 4 days in vitro (DIV) further glial mitosis is inhibited by adding 10 μl of AraC (5 μM endconcentration). The medium is completely exchanged after an additional 2 DIV and again, but only partly (50%), after 8 DIV. The cells are used for electrophysiological recordings after 11-15 DIV.
Cells are visualised using an inverted microscope and selected for patching based upon their position and morphology. Voltage clamp recordings are made in the whole cell configuration of the patch clamp technique at a holding potential of −70 mV with the aid of an EPC-10 amplifier in combination with pipette manipulator. Patch clamp pipettes are pulled from borosilicate glass using a horizontal puller (P-97 Puller, Sutter Instruments, USA) and, when filled with intracellular solution, have resistances of 1-4 MΩ.
Solutions are delivered via a home-made gravity driven very fast perfusion system (<10 ms) including valves to switch flow on and off in combination with a stepper motor-driven double-barreled theta glass application pipette in order to expose cells to either agonist-free or agonist-containing solutions in presence or absence of antagonist.
The intracellular solution used consists of: 120 mM CsCl, 10 mM EGTA, 1 mM MgCl2, 200 μM CaCl2, 10 mM glucose and 22 mM tetraethyl ammonium chloride (TEA-CL). The corresponding extracellular bath solution contains: 140 mM NaCl, 3 mM KCl, 10 mM glucose, 10 mM HEPES, 1.5 mM CaCl2 and 4.5 mM sucrose (all from Sigma-Aldrich) pH 7.3, and is supplemented with 0.3 μM tetrodotoxin (TTX, Tocris, Bristol, U.K.) to block voltage-activated sodium channels and 0.25 μM bicuculline (Sigma-Aldrich) to block GABAA receptors. […]

SMILES	melting point	IC50 [1] [nM]
O=C(O)c1cc2cc(Cl)ccc2nc1NC(COCc1ccccc1)C(=O)Nc1ccccc1 (stereo not drawn) [Example 117, 2-(2-Benzyloxy-1-phenylcarbamoyl-ethylamino)-6-chloro-quinoline-3-carboxylic acid]	150 to 151 °C	
Cn1cc(C[C@H](Nc2nc3ccc(Cl)cc3cc2C(=O)O)C(=O)O)c2ccccc21 [Example 15, 2-[(S)-1-Carboxy-2-(1-methyl-1H-indol-3-yl)-ethylamino]-6-chloro-quinoline-3-carboxylic acid]		1360
O=C(O)c1cc2cc(Cl)ccc2nc1NC(Cc1cccs1)C(=O)O (stereo not drawn) [Example 83, 2-(1-Carboxy-2-thiophen-2-yl-ethylamino)-6-chloro-quinoline-3-carboxylic acid]	> 250 °C (dec.)	
Nc1ccc(CC(Nc2nc3ccc(Cl)cc3cc2C(=O)O)C(=O)O)cc1 (stereo not drawn)	> 250 °C (dec.)	
O=C(O)c1cc2cc(Cl)ccc2nc1N[C@@H](Cc1ccc(Cl)cc1)C(=O)O [Example 23, 2-[(S)-1-Carboxy-2-(4-chloro-phenyl)-ethylamino]-6-chloro-quinoline-3-carboxylic acid]		898
O=C(O)c1cc2cc(Cl)ccc2nc1N[C@@H](Cc1ccc(O)c(Cl)c1)C(=O)O	150 to 175 °C (dec.)	
O=C(O)c1ccc(CC(Nc2nc3ccc(Cl)cc3cc2C(=O)O)C(=O)O)cc1 (stereo not drawn)	> 180 °C (dec.)	
O=C(O)c1cc2cc(Cl)c(Cl)cc2nc1N[C@H](Cc1c[nH]c2ccccc12)C(=O)O [Example 36, 2-[(R)-1-Carboxy-2-(1H-indol-3-yl)-ethylamino]-6,7-dichloro-quinoline-3-carboxylic acid]		1150
O=C(O)c1cc2cc(Cl)ccc2nc1NC(CCc1ccccc1)C(=O)O (stereo not drawn) [Example 28, 2-(1-Carboxy-3-phenyl-propylamino)-6-chloro-quinoline-3-carboxylic acid]	179 to 182 °C (dec.)	
COc1cccc(CC(Nc2nc3ccc(Cl)cc3cc2C(=O)O)C(=O)O)c1 (stereo not drawn)	165 to 170 °C (dec.)	
COc1ccc(Cl)c(CC(Nc2nc3ccc(Cl)cc3cc2C(=O)O)C(=O)O)c1 (stereo not drawn) [Example 68, 2-[1-Carboxy-2-(2-chloro-5-methoxy-phenyl)-ethylamino]-6-chloro-quinoline-3-carboxylic acid]	180 to 185 °C	
O=C(O)c1cc2cc(Cl)ccc2nc1N[C@@H](Cc1ccc(Oc2ccc3c(-c4ccccc4)nccc3n2)cc1)C(=O)O [Example 130, 2-{(S)-1-Carboxy-2-[4-(5-phenyl-[1,6]naphthyridin-2-yloxy)-phenyl]-ethylamino}-6-chloro-quinoline-3-carboxylic acid]		190
O=C(O)c1cc2ccccc2nc1N[C@H](Cc1ccccc1)C(=O)O [Example 44, 2-((R)-1-Carboxy-2-phenyl-ethylamino)-quinoline-3-carboxylic acid]	140 to 141.5 °C	
O=C(O)c1cc2cc(Cl)ccc2nc1NC(Cc1ccc(Oc2ccc3ccccc3n2)cc1)C(=O)O (stereo not drawn) [Example 96, 2-{1-Carboxy-2-[4-(quinolin-2-yloxy)-phenyl]-ethylamino}-6-chloro-quinoline-3-carboxylic acid]	136 °C	
O=C(O)c1cc2cc(Cl)ccc2nc1NC(Cc1cccc(CC(Nc2nc3ccc(Cl)cc3cc2C(=O)O)C(=O)O)c1)C(=O)O (stereo not drawn) [Example 82, 2-{2-[3-[2-(3-Carboxy-6-chloro-quinolin-2-yl)amino-2-carboxy-ethyl]-phenyl]-1-carboxy-ethylamino}-6-chloro-quinoline-3-carboxylic acid]	> 185 °C (dec.)	
O=C(O)c1cc2cc(Cl)ccc2nc1NC(Cc1cccc(Oc2nc3ccc(Cl)cc3cc2C(=O)O)c1)C(=O)O (stereo not drawn) [Example 81, 2-{2-[3-(3-carboxy-6-chloro-quinolin-2-yloxy)-phenyl]-1-carboxy-ethylamino}-6-chloro-quinoline-3-carboxylic acid]	186 to 197 °C (dec.)	
O=C(O)c1cc2cc(Cl)ccc2nc1N[C@@H](Cc1ccc(Oc2ccc(I)cn2)cc1)C(=O)O [Example 131, 2-{1-Carboxy-2-[4-(5-iodo-pyridin-2-yloxy)-phenyl]-ethylamino}-6-chloro-quinoline-3-carboxylic acid]		170

SMILES	melting point	IC50 [1] [nM]
O=C(O)c1cc2cc(Cl)ccc2nc1N[C@@H](Cc1ccc(Oc2ncccc2C(=O)O)cc1)C(=O)O (as salt: salt) [Example 100, 2-{(S)-1-Carboxy-2-[4-(3-carboxy-pyridin-2-yloxy)-phenyl]-ethylamino}-6-chloro-quinoline-3-carboxylic acid]	> 166 °C (dec.)	
O=C(O)c1cc2cc(Cl)ccc2nc1NC(Cc1cccc(F)c1)C(=O)O (stereo not drawn)	177 to 181 °C	
O=C(O)c1cc2cc(Cl)ccc2nc1NC(Cc1ccc(O)c(F)c1)C(=O)O (stereo not drawn) [Example 52, 2-[1-Carboxy-2-(3-fluoro-4-hydroxy-phenyl)-ethylamino]-6-chloro-quinoline-3-carboxylic acid]	> 160 °C (dec.)	
COc1ccccc1CC(Nc1nc2ccc(Cl)cc2cc1C(=O)O)C(=O)O (stereo not drawn)	> 180 °C (dec.)	
O=C(O)c1cccc(CC(Nc2nc3ccc(Cl)cc3cc2C(=O)O)C(=O)O)c1 (stereo not drawn)	> 250 °C (dec.)	
O=C(O)c1cc2cc(Cl)cc(Cl)c2nc1NC(Cc1cccc(F)c1)C(=O)O (stereo not drawn) [Example 115, 2-[1-Carboxy-2-(3-fluoro-phenyl)-ethylamino]-6,8-dichloro-quinoline-3-carboxylic acid]		510
O=C(O)C[C@H](Nc1nc2ccc(Cl)cc2cc1C(=O)O)C(=O)O [Example 114, (S)-2-(3-Carboxy-6-chloro-quinolin-2-ylamino)-succinic acid ammonia hydrate]		720
O=C(O)c1cc2cc(Cl)ccc2nc1NC(C(=O)O)C(C(=O)O)c1cc(F)cc(F)c1 (stereo not drawn) [Example 136, 2-(3-Carboxy-6-chloro-quinolin-2-ylamino)-3-(3,5-difluoro-phenyl)-succinic acid]	230 to 250 °C (dec.)	
O=C(O)c1cc2cc(Cl)ccc2nc1NC(Cc1ccc(C#Cc2ccccc2)cc1)C(=O)O (stereo not drawn) [Example 62, 2-[1-Carboxy-2-(4-phenylethynyl-phenyl)-ethylamino]-6-chloro-quinoline-3-carboxylic acid]	164 to 173 °C	
O=C(O)c1cc2cc(Cl)ccc2nc1N[C@H](Cc1ccccc1)C(=O)O [Example 6, 2-((R)-1-Carboxy-2-phenyl-ethylamino)-6-chloro-quinoline-3-carboxylic acid]		534
O=C(O)c1cc2cc(Cl)ccc2nc1NC(Cc1ccccn1)C(=O)O (stereo not drawn) [Example 149, 2-(1-Carboxy-2-pyridin-2-yl-ethylamino)-6-chloro-quinoline-3-carboxylic acid]		170
Nc1cc(C[C@H](Nc2nc3ccc(Cl)cc3cc2C(=O)O)C(=O)O)ccc1O	> 250 °C	
O=C(O)c1cc2cc(Cl)ccc2nc1NC(Cc1cccnc1)C(=O)O (stereo not drawn)	> 170 °C (dec.)	
Cc1cc(C)n(CC(Nc2nc3ccc(Cl)cc3cc2C(=O)O)C(=O)O)n1 (stereo not drawn) [Example 57, 2-[1-Carboxy-2-(3,5-dimethyl-pyrazol-1-yl)-ethylamino]-6-chloro-quinoline-3-carboxylic acid]	> 200 °C (dec.)	
Br.Br.NCCCC[C@H](Nc1nc2ccc(Cl)cc2cc1C(=O)O)C(=O)O	174 to 182 °C	
O=C(O)c1cc2cc(Cl)ccc2nc1NC(Cc1ccc(Nc2ccc3ccccc3n2)cc1)C(=O)O (stereo not drawn) [Example 108, 2-{1-Carboxy-2-[4-(quinolin-2-ylamino)-phenyl]-ethylamino}-6-chloro-quinoline-3-carboxylic acid]		560
